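Grown in 96-well plates, cells were treated for 48 hours with each compound at five concentrations. Insufficient inhibition: endpoint recorded as highest concentration tested. Here, GI50 denotes the concentration required for 50% inhibition of growth.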 Calls of active or inactive are those of the source. Rule as the data show it: active = GI50 up to about 1.1 µM and inactive = higher.
Assays:
Assay in all cases: NCI-60 cell line screen, 48 h
A549 = tested on: A549
ACHN = tested on: ACHN
BT-549 = tested on: BT-549
DU-145 = tested on: DU-145
EKVX = tested on: EKVX
HCC 2998 = tested on: HCC 2998
M14 = tested on: M14
NCI-H23 = tested on: NCI-H23
NCI-H460 = tested on: NCI-H460
RXF 393 = tested on: RXF 393
SF-268 = tested on: SF-268
SK-MEL-2 = tested on: SK-MEL-2
SNB-19 = tested on: SNB-19
SR = tested on: SR
T47D = tested on: T47D
TK-10 = tested on: TK-10
UACC-257 = tested on: UACC-257
UACC-62 = tested on: UACC-62
UO-31 = tested on: UO-31
RPMI-8226 = tested on: RPMI-8226

SMILES | GI50 (A549) | GI50 (ACHN) | GI50 (BT-549) | GI50 (DU-145) | GI50 (EKVX) | GI50 (HCC 2998) | GI50 (M14) | GI50 (NCI-H23) | GI50 (NCI-H460) | GI50 (RXF 393) | GI50 (SF-268) | GI50 (SK-MEL-2) | GI50 (SNB-19) | GI50 (SR) | GI50 (T47D) | GI50 (TK-10) | GI50 (UACC-257) | GI50 (UACC-62) | GI50 (UO-31) | GI50 (RPMI-8226)
COC(=O)C12CCCN1CCC2 | > 100 µM (inactive) | > 100 µM (inactive) | > 100 µM (inactive) | > 100 µM (inactive) | > 100 µM (inactive) | > 100 µM (inactive) | > 100 µM (inactive) | > 100 µM (inactive) | > 100 µM (inactive) | > 100 µM (inactive) | > 100 µM (inactive) | > 100 µM (inactive) | > 100 µM (inactive) | > 100 µM (inactive) | > 100 µM (inactive) | > 100 µM (inactive) | > 100 µM (inactive) | > 100 µM (inactive) | > 100 µM (inactive) | 
c1ccc(-c2nc3ccccc3n3c(CN4CCCCC4)nnc23)cc1 | > 100 µM (inactive) | 28.7 µM (inactive) | 80.2 µM (inactive) | > 100 µM (inactive) | 93.5 µM (inactive) | > 100 µM (inactive) | > 100 µM (inactive) |  | > 100 µM (inactive) | 35.7 µM (inactive) | 49.5 µM (inactive) | 35.1 µM (inactive) | 36.2 µM (inactive) | > 100 µM (inactive) | 54.5 µM (inactive) | 35.2 µM (inactive) | > 100 µM (inactive) | > 100 µM (inactive) |  | > 100 µM (inactive)
CCOC(=O)/C(=C\c1cccc(C)c1)C(C)=O | 30 µM (inactive) | 22.4 µM (inactive) | 10.8 µM (inactive) | 16.7 µM (inactive) | 48 µM (inactive) | 15.1 µM (inactive) | 17.4 µM (inactive) | 17 µM (inactive) | 20.8 µM (inactive) | 11.5 µM (inactive) | 15.2 µM (inactive) | 10.1 µM (inactive) | 17.7 µM (inactive) | 3.44 µM (inactive) | 11.1 µM (inactive) | 16.3 µM (inactive) | 14.3 µM (inactive) | 16.5 µM (inactive) | 13.8 µM (inactive) | 8.17 µM (inactive)
CNCCCNC(=S)Cn1cc(C)c(=O)[nH]c1=O | > 29.9 µM (inactive) | > 49.2 µM (inactive) | > 61.9 µM (inactive) | > 52.2 µM (inactive) | > 60.8 µM (inactive) | > 52.6 µM (inactive) | > 53 µM (inactive) | > 41.8 µM (inactive) | > 43 µM (inactive) | > 60.3 µM (inactive) | > 39.1 µM (inactive) | > 45.2 µM (inactive) | > 91.2 µM (inactive) | > 32.9 µM (inactive) | > 100 µM (inactive) | > 64.7 µM (inactive) | > 37.9 µM (inactive) | > 47.4 µM (inactive) | > 48 µM (inactive) | > 100 µM (inactive)
O=C(OC1C=C=CS(=O)(=O)CC#C/C=C\1)c1cnc2ccccc2n1 (stereo unspecified) | > 100 µM (inactive) | 93.1 µM (inactive) | > 100 µM (inactive) | > 100 µM (inactive) | 97.3 µM (inactive) | > 100 µM (inactive) | > 100 µM (inactive) | 83.6 µM (inactive) | > 100 µM (inactive) | > 100 µM (inactive) | > 100 µM (inactive) | > 100 µM (inactive) | > 100 µM (inactive) | 68.9 µM (inactive) | > 100 µM (inactive) | > 100 µM (inactive) | > 100 µM (inactive) | 26.4 µM (inactive) | 76.6 µM (inactive) | 57 µM (inactive)
CCC(=O)C(CCN1CCC(N2C(=O)C(CCC#N)c3ccccc32)CC1)(c1ccccc1)c1ccccc1 (stereo unspecified) | 14 µM (inactive) | 15.9 µM (inactive) | 13.3 µM (inactive) | 12.2 µM (inactive) |  | 12.4 µM (inactive) | 10.1 µM (inactive) | 18.2 µM (inactive) | 11.3 µM (inactive) | 3.37 µM (inactive) | 16.1 µM (inactive) | 13.9 µM (inactive) | 17.2 µM (inactive) | 0.0486 µM (active) | 7.85 µM (inactive) | 12.5 µM (inactive) | 13 µM (inactive) | 15.6 µM (inactive) | 9.53 µM (inactive) | 4.17 µM (inactive)
CCC(=O)NI1OC(=O)c2ccccc21 | > 100 µM (inactive) | > 100 µM (inactive) | > 100 µM (inactive) | > 100 µM (inactive) | > 100 µM (inactive) | > 100 µM (inactive) | > 100 µM (inactive) | > 100 µM (inactive) | > 100 µM (inactive) | > 100 µM (inactive) | > 100 µM (inactive) | > 100 µM (inactive) |  | 36.9 µM (inactive) | > 100 µM (inactive) | > 100 µM (inactive) | > 100 µM (inactive) | > 100 µM (inactive) | > 100 µM (inactive) | 45.9 µM (inactive)
O=C1NC(N2CCOCC2)=N/C1=C\c1ccc(O)cc1 | > 100 µM (inactive) | > 100 µM (inactive) | > 100 µM (inactive) | > 100 µM (inactive) | > 100 µM (inactive) | > 100 µM (inactive) | > 100 µM (inactive) | > 100 µM (inactive) |  | > 100 µM (inactive) | > 100 µM (inactive) | > 100 µM (inactive) | > 100 µM (inactive) | > 100 µM (inactive) | > 100 µM (inactive) | > 100 µM (inactive) | > 100 µM (inactive) | > 100 µM (inactive) | > 100 µM (inactive) | > 100 µM (inactive)
O=C(O)C1C(=O)Oc2c(cccc2[N+](=O)[O-])C1O (stereo unspecified) | > 100 µM (inactive) | > 100 µM (inactive) | > 100 µM (inactive) | > 100 µM (inactive) | > 100 µM (inactive) | > 100 µM (inactive) | > 100 µM (inactive) | > 100 µM (inactive) | > 100 µM (inactive) | > 100 µM (inactive) | > 100 µM (inactive) | > 100 µM (inactive) | > 100 µM (inactive) | > 100 µM (inactive) | > 100 µM (inactive) | > 100 µM (inactive) | > 100 µM (inactive) | > 100 µM (inactive) |  | > 100 µM (inactive)
NNC(=O)c1cc([N+](=O)[O-])ccc1NC(=O)C12CC3CC(CC(C3)C1)C2 | 17.8 µM (inactive) | 10 µM (inactive) | 26.6 µM (inactive) | 20 µM (inactive) | 7.05 µM (inactive) | 10.5 µM (inactive) | 13 µM (inactive) | 19.5 µM (inactive) | 18.1 µM (inactive) | 7.98 µM (inactive) | 3.82 µM (inactive) |  | 2.98 µM (inactive) | 3.43 µM (inactive) | 10 µM (inactive) | 12.2 µM (inactive) | 15.2 µM (inactive) | 10 µM (inactive) | 7.98 µM (inactive) | 12.2 µM (inactive)
[O-][S+](Nc1ccccc1)c1ccc(Cl)cc1 (stereo unspecified) | 48.4 µM (inactive) | > 100 µM (inactive) | 32.6 µM (inactive) | 91.4 µM (inactive) | > 100 µM (inactive) | 69.7 µM (inactive) | > 100 µM (inactive) | > 100 µM (inactive) | 56 µM (inactive) |  | 16.2 µM (inactive) | > 100 µM (inactive) | > 100 µM (inactive) | 16.4 µM (inactive) | 50.1 µM (inactive) | > 100 µM (inactive) | > 100 µM (inactive) | 14.9 µM (inactive) | 44.8 µM (inactive) | > 100 µM (inactive)
